Experimental data from US9358276B2, “Methods of diagnosing and treating small intestinal bacterial overgrowth (SIBO) and SIBO-related conditions” (Cedars-Sinai Medical Center, priority 1999, dated 2016).

How the values were obtained:
[1] = system: intestinal transit; assay: Intestinal transit in fistulated dogs, Sqrt AUC of cumulative marker recovery; type: in vivo, dog
Procedure: In 4 dogs equipped with duodenal (10 cm from pylorus) and mid-gut (160 cm from pylorus) fistulas, as described hereinbelow (Example 14), intestinal transit was compared across an isolated 150 cm test segment (between fistulas) while 0, 15, 30 or 60 mM oleate was delivered into either the proximal or distal segment of the gut as a solution of mixed micelles in pH 7.0 phosphate buffer at 2 mL/min for 90 minutes. The segment of gut not receiving oleate was perfused with phosphate buffer, pH 7.0, at 2 mL/min. 60 minutes after the start of the perfusion, […] of ^99mTc-DTPA (diethylenetriaminepentaacetic acid) was delivered as a bolus into the test segment. Intestinal transit was then measured by counting the radioactivity of 1 ml samples collected every 5 minutes from the diverted output of the mid-gut fistula.
Intestinal transit was calculated by determining the area under the curve (AUC) of the cumulative percent recovery of the radioactive marker. The square root values of the AUC (Sqrt AUC), where 0=no recovery by 30 minutes and 47.4=theoretical, instantaneous complete recovery by time 0, were compared across region of fat exposure and oleate dose using 2-way repeated measures ANOVA (see Table 6 below).

[2] = system: SIBO; assay: Neomycin treatment of SLE subjects with SIBO; type: in vivo, human
Procedure: Fifteen of the 202 (7.4%) subjects in the database had been diagnosed with SLE. Of these 15 subjects, 13 (87%) had bacterial overgrowth, as indicated by LBHT. Four of the 15 subjects with SLE returned for follow-up LBHT and questionnaire after treatment with neomycin (500 mg twice daily for 10 days). […] (Table 3).

[3] = system: SIBO; assay: Neomycin treatment of chronic fatigue syndrome subjects with SIBO; type: in vivo, human
Procedure: Thirty of 202 subjects in the database ([…]) had received a diagnosis of chronic fatigue syndrome. Of these 30 subjects, 21 (70%) had SIBO as indicated by LBHT, but four out of the nine without SIBO had recently taken antibiotics. Therefore, the prevalence of SIBO was 21 out of 26 (81%) subjects with a diagnosis of CFS. After treatment with neomycin (500 mg twice daily, 10-day course), nine of the 21 subjects diagnosed with CFS, returned for follow-up LBHT and questionnaire. […] (Table 2).

[4] = system: SIBO; assay: Neomycin treatment of subjects with IBS and SIBO (LBHT, VAS); type: in vivo, human
Procedure: Subjects were tested after an overnight fast. At time zero, each subject swallowed 15 ml of Chronulac formula, delivering 10 g of lactulose; every 5-20 min thereafter, for 2-4 hours, a 50 cm^3 end-expiratory breath sample was taken with an airtight sampling bag. Each breath sample was then analyzed for hydrogen content with a gas chromatograph (Quintron Model DP, Quintron Instrument Co., Division of E.F. Brewer Co, Menomonee Falls, Wis. 53051), standardized using a QuinGas standard as instructed by the manufacturer. Hydrogen peaks were plotted before and after an antimicrobial treatment regimen for comparison. The normal range for the second hydrogen peak was 0 to 20 ppm.
The two hundred-two (202) human subjects were assessed for SIBO with LBHT. Of the 202 subjects in the database, 95 claimed to have been given a diagnosis of IBS. […] After these 22 subjects were excluded, 73 subjects remained.
Of the 124, 92 (74%) were positive for SIBO. […] Therefore, the incidence of SIBO among the 110 untreated subjects was 92 (84%), showing a strong association between a suspected diagnosis of IBS and the presence of SIBO. After neomycin treatment (500 mg twice daily for ten days), 23 of these 92 returned for follow-up testing. On a visual analog scores (VAS), subjects were asked to rate their degree of post-treatment improvement. These 23 subjects reported a 60±31% improvement, although 17 had only partial eradication of SIBO, based on their LBHT results. (FIG. 1).
There was a likely selection bias in the database due to the fact that subjects were referred for LBHT, because their physicians suspected they had SIBO. To correct for this bias, a pilot study was also conducted looking at the incidence of bacterial overgrowth in patients with IBS. […] Eight human subjects with a suspected diagnosis of IBS, based on the Rome criteria, were tested for SIBO, using LBHT as described in Example 2. […] Six of the 7 subjects testing positive for SIBO returned approximately 10 days after completion of a 10 day course of neomycin as described above. […] The six subjects reported an average improvement in their IBS symptoms of 65±28% (Range: 20-100%) on VAS scoring.

Compound | Sqrt AUC of cumulative percent marker recovery (mean ± SE) ([1]; Distal 1/2 of gut, 15 mM) | Sqrt AUC of cumulative percent marker recovery (mean ± SE) ([1]; Distal 1/2 of gut, 30 mM) | Sqrt AUC of cumulative percent marker recovery (mean ± SE) ([1]; Distal 1/2 of gut, 60 mM) | Sqrt AUC of cumulative percent marker recovery (mean ± SE) ([1]; Proximal 1/2 of gut, 15 mM, buffer control 41.4 ± 4.6) | Sqrt AUC of cumulative percent marker recovery (mean ± SE) ([1]; Proximal 1/2 of gut, 30 mM) | Sqrt AUC of cumulative percent marker recovery (mean ± SE) ([1]; Proximal 1/2 of gut, 60 mM) | VAS score Fatigue, After Antibiotic ([2]; four SLE patients) | VAS score Gas, After Antibiotic ([2]; four SLE patients) | VAS score Joint Pains, After Antibiotic ([2]; four SLE patients) | VAS score Bloating, After Antibiotic ([2]; four SLE patients, neomycin 500 mg twice daily for 10 days) | LBHT result after treatment ([2]; four SLE subjects) | eradication of SIBO (LBHT) ([3]; all nine CFS subjects) | VAS score Fatigue, After Antibiotic ([3]; nine CFS patients) | VAS score Bloating, After Antibiotic ([3]; nine CFS patients, neomycin 500 mg twice daily, 10-day course) | degree of post-treatment improvement (VAS) ([4]; 23 IBS subjects with SIBO, 500 mg twice daily for ten days) | subjects with only partial eradication of SIBO (LBHT) ([4]; of the 23 returning subjects) | average improvement in IBS symptoms on VAS scoring ([4]; pilot study, six subjects) | post-treatment breath hydrogen peaks ([4]; pilot study, six subjects) | range of improvement in IBS symptoms on VAS scoring ([4]; pilot study, six subjects) | eradication of SIBO (LBHT) ([4]; pilot study, six subjects, 10 day course)
CCCCCCCC/C=C\CCCCCCCC(=O)[O-].[Na+] [oleate, sodium oleate] | 25.6 ± 1.4 | 18.9 ± 1.5 | 7.0 ± 3.8 | 41.6 ± 1.4 | 40.6 ± 10.2 | 34.4 ± 3.0 |  |  |  |  |  |  |  |  |  |  |  |  |  | 
neomycin |  |  |  |  |  |  | 3.5 ± 1.4 | 1.9 ± 1.7 | 0.5 ± 0.6 | 1.3 ± 1.3 | negative for SIBO | at least partially eradication of SIBO | 3.5 ± 1.4 | 2.3 ± 1.7 | 60±31% | 17 | 65±28% | 0-20 ppm | 20-100% | completely eradicated
